Patent US9096591B2, “Tetracyclic compounds” (Medivation Technologies, Inc., priority 2007, dated 2015)

Assays:
Settings in all cases: percent inhibition of specific binding
[1] = target: T1, human recombinant adrenergic α2A receptor (Homo sapiens, UniProt P08913); experiment: Adrenergic α2A radioligand binding ([3H]MK-912); design: Inhibition of ligand binding, Adren. alpha2A: concentration or dose not given beside the values
T1 construct: expressed in transfected cells; host or cells: insect Sf9 cells
T1 sequence (P08913 1-465): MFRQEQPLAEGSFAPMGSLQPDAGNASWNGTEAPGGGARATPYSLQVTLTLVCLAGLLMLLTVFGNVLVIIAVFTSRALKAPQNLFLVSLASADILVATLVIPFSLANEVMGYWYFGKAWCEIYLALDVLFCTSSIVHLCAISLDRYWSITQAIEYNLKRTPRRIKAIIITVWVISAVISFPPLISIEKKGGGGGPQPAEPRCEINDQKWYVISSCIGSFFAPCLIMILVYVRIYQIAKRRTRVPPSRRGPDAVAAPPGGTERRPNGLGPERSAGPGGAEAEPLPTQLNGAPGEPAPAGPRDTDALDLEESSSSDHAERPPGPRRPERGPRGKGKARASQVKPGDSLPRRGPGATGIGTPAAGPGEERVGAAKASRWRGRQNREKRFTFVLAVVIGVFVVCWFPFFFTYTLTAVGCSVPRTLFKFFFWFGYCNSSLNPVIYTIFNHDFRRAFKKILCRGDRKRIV
Procedure, shortened: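 Membranes from Sf9 cells expressing the receptor were incubated with 1 nM [3H]MK-912 for 60 minutes at 25° C in 50 mM Tris-HCl pH 7.4, 12.5 mM MgCl2, 2 mM EDTA. 10 μM WB-4101 defined non-specific binding. Values are percent inhibition of specific bound radioactivity after filtration.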

[2] = target: T2, human recombinant serotonin (5-Hydroxytryptamine) 5-HT6 receptor (Homo sapiens, UniProt P50406); experiment: Serotonin 5-HT6 radioligand binding ([3H]LSD); design: Inhibition of ligand binding, Ser. 5-HT6: concentration or dose not given beside the values
T2 construct: expressed in transfected cells; host or cells: human HeLa cells
T2 sequence (P50406 whole entry): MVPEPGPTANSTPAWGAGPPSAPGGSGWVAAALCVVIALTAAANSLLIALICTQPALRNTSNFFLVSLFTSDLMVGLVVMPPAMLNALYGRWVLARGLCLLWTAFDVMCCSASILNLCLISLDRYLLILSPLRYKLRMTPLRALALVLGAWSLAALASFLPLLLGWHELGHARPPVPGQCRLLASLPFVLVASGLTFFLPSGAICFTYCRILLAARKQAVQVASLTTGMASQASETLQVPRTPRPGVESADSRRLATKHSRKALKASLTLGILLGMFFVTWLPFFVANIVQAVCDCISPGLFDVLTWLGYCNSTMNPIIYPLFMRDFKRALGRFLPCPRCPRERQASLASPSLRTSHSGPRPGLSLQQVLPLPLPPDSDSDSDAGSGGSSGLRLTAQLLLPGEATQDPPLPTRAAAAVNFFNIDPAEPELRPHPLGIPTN
From the text: Receptor proteins were filtered and washed, the filters were then counted to determine [3H]LSD specifically bound. […] Biochemical assay results are presented as the percent inhibition of specific binding in Table 6.

[3] = target: T3, human recombinant serotonin (5-Hydroxytryptamine) 5-HT2C receptor (Homo sapiens, UniProt P28335); experiment: Serotonin 5-HT2C radioligand binding ([3H]Mesulergine); design: Inhibition of ligand binding, Ser. 5-HT2C: concentration or dose not given beside the values
T3 construct: expressed in transfected cells; host or cells: CHO-K1 cells
T3 sequence (P28335 33-458): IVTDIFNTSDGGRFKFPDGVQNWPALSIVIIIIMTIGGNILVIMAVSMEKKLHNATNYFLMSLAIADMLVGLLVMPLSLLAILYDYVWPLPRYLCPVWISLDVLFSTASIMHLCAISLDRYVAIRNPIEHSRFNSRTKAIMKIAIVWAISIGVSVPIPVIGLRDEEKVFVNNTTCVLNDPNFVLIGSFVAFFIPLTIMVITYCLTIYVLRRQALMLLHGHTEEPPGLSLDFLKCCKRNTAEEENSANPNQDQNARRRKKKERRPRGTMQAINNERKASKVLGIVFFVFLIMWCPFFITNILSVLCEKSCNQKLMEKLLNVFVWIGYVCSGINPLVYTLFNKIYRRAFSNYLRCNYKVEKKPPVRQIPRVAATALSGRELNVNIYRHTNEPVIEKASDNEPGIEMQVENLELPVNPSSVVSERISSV
Method: (§1) Compounds of the invention were incubated with 1 nM [^3H]Mesulergine for 60 minutes at 25° C. Non-specific binding was estimated in the presence of 1 μM Mianserin. Receptor proteins were filtered and washed, the filters were then counted to determine [^3H]Mesulergine specifically bound. […] Biochemical assay results are presented as the percent inhibition of specific binding in Table 6.

[4] = target: T4, human recombinant dopamine D2L receptor (Homo sapiens, UniProt P14416); experiment: Dopamine D2L radioligand binding ([3H]Spiperone)
T4 construct: expressed in transfected cells; host or cells: CHO cells
T4 sequence (P14416 whole entry): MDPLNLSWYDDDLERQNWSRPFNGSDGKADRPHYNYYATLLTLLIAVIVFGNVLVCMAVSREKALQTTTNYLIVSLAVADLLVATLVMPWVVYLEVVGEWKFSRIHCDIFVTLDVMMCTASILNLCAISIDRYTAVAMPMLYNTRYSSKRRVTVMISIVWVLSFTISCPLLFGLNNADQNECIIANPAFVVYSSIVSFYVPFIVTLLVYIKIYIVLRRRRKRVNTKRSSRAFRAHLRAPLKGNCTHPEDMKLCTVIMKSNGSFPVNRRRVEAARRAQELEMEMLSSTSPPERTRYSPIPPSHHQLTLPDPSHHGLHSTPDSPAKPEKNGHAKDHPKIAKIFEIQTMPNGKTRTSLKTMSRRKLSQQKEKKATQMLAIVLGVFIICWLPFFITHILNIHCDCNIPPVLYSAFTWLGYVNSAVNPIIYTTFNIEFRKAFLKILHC
Method: Non-specific binding was estimated in the presence of 10 μM Haloperidol. Receptor proteins were filtered and washed, the filters were then counted to determine [^3H]Spiperone specifically bound. […] Biochemical assay results are presented as the percent inhibition of specific binding in Table 6.

[5] = target: T5, human recombinant serotonin (5-Hydroxytryptamine) 5-HT2A receptor (Homo sapiens, UniProt P28223); experiment: Serotonin 5-HT2A radioligand binding ([3H]Ketanserin)
T5 construct: expressed in transfected cells; host or cells: CHO-K1 cells
T5 sequence (P28223 whole entry): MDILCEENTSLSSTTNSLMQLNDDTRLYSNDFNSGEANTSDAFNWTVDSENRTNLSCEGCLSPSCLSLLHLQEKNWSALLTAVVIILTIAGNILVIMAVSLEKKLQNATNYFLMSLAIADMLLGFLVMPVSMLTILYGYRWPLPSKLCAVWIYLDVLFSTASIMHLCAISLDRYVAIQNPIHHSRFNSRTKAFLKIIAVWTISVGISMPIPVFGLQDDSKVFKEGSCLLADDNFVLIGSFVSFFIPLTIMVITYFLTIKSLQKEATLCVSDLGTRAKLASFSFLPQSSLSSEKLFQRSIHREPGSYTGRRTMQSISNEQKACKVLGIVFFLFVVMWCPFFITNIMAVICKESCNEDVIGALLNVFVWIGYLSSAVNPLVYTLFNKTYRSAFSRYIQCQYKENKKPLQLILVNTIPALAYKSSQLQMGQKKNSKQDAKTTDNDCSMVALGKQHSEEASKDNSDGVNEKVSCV
Method: as §1, with “with 0.5” for “with 1”, “nM [^3H]Ketanserin” for “nM [^3H]Mesulergine”, “determine [^3H]Ketanserin” for “determine [^3H]Mesulergine”

| SMILES | Inhibition of ligand binding, Adren. alpha2A [1] [%] | Inhibition of ligand binding, Ser. 5-HT6 [2] [%] | Inhibition of ligand binding, Ser. 5-HT2C [3] [%] | Inhibition of ligand binding, Dop. D2L [4] [%] | Inhibition of ligand binding, Ser. 5-HT2A [5] [%] |
| --- | --- | --- | --- | --- | --- |
| OC1CCC(N2CCc3c(c4cc(Cl)ccc4n3CCc3ccc(C(F)(F)F)nc3)C2)C1 (stereo not shown) [Compound 351, 3-(8-chloro-5-(2-(6-(trifluoromethyl)pyridin-3-yl)ethyl)-3,4-dihydro-1H-pyrido[4,3-b]indol-2(5H)-yl)cyclopentanol] | 8 | −4 | 26 | 7 | 1 |
| CCc1ccc2c(c1)c1c(n2CCc2ccc(C)nc2)CCN(C)C1 [Compound 357, 8-Ethyl-2-methyl-5-[2-(6-methyl-pyridin-3-yl)-ethyl]-2,3,4,5-tetrahydro-1H-pyrido[4,3-b]indole] | 91 | 85 | 67 | 47 | 69 |
| CN1CCc2c(c3cc(Cl)ccc3n2CCn2cccc2)C1 [Compound 349, 8-Chloro-2-methyl-5-(2-pyrrol-1-yl-ethyl)-2,3,4,5-tetrahydro-1H-pyrido[4,3-b]indole] | 96 | 101 | 98 | 86 | 97 |
| CN1CCc2c(c3ccccc3n2CCc2ccccc2)C1 [Compound 2, 2,3,4,5-tetrahydro-2-methyl-5-phenethyl-1H-pyrido[4,3-b]indole] | 94 | 95 | 97 | 70 | 96 |
| Cc1ccc2c(c1)c1c(n2CCc2cnccn2)CCN(C)C1 [Compound 62] | 51 | 83 | 88 | −3 | 85 |
| Cc1ccc(CCn2c3c(c4cc(Cl)c(F)cc42)CN(C)CC3)cn1 [Compound 404, 8-Chloro-7-fluoro-2-methyl-5-[2-(6-methyl-pyridin-3-yl)-ethyl]-2,3,4,5-tetrahydro-1H-pyrido[4,3-b]indole] | 94 | 94 | 78 | 35 | 88 |
| Cc1ccc(CCn2c3c(c4cc(Cl)ccc42)CN(C)CC3)cn1 [Compound 225, 8-chloro-2,3,4,5-tetrahydro-2-methyl-5-(2-(6-methylpyridin-3-yl)ethyl)-1H-pyrido[4,3-b]indole] | 91 | 81 | 91 | 32 | 92 |
| Cc1cccc2c3c(n(CCc4ccc(C(F)(F)F)nc4)c12)CCN(C)C3 [Compound 380, 5-(2-(6-(trifluoromethyl)pyridin-3-yl)ethyl)-2,3,4,5-tetrahydro-2,6-dimethyl-1H-pyrido[4,3-b]indole] | 78 | 39 | 70 | −5 | 88 |
| Cc1cnc(CCn2c3c(c4cc(Cl)ccc42)CN(C)CC3)cn1 [Compound 363, 8-Chloro-2-methyl-5-[2-(5-methyl-pyrazin-2-yl)-ethyl]-2,3,4,5-tetrahydro-1H-pyrido[4,3-b]indole] | 59 | 83 | 66 | 24 | 75 |
| CC(C)c1ccc(CCn2c3c(c4cc(Cl)ccc42)CN(C)CC3)cn1 [Compound 372, 8-Chloro-5-[2-(6-isopropyl-pyridin-3-yl)-ethyl]-2-methyl-2,3,4,5-tetrahydro-1H-pyrido[4,3-b]indole] | 100 | 88 | 77 | 44 | 96 |
| Cc1cncc(CCn2c3c(c4cc(C)ccc42)CN(C)CC3)c1 [Compound 429, 2,3,4,5-tetrahydro-2,8-dimethyl-5-(2-(5-methylpyridin-3-yl)ethyl)-1H-pyrido[4,3-b]indole] | 67 | 79 | 84 | 23 | 76 |
| Cc1ccc2c(n1)c1c(n2CCc2ccc(C(F)(F)F)nc2)CCN(C)C1 [Compound 353, 9-aza-2,8-dimethyl-5-(2-(6-(trifluoromethyl)pyridin-3-yl)ethyl)-2,3,4,5-tetrahydro-1H-pyrido[4,3-b]indole] | 8 | 0 | −15 | 5 | −1 |
| CCc1ccc(CCn2c3c(c4cc(Cl)ccc42)CN(C)CC3)cn1 [Compound 371, 8-Chloro-5-[2-(6-ethyl-pyridin-3-yl)-ethyl]-2-methyl-2,3,4,5-tetrahydro-1H-pyrido[4,3-b]indole] | 89 | 88 | 87 | 40 | 93 |
| CCCc1ccc(CCn2c3c(c4cc(C)ccc42)CN(C)CC3)cn1 [Compound 452, 2,8-Dimethyl-5-[2-(6-propyl-pyridin-3-yl)-ethyl]-2,3,4,5-tetrahydro-1H-pyrido[4,3-b]indole] | 92 | 93 | 93 | 52 | 97 |
